Results taken from publication PMC8833744, “Strategic Decoy Peptides Interfere with MSI1/AGO2 Interaction to Elicit Tumor Suppression Effects” (Cancers, 2022).
Residues, ends and D or L forms follow the SMILES beside them. No end group written: not given here. *: point of attachment. 5FAM = O=C1OC2(c3ccc(O)cc3Oc3cc(O)ccc32)c2ccc(C(=O)*)cc21

Key:
endogenous AGO2 = target: T1, endogenous AGO2 (Homo sapiens, UniProt Q9UKV8); experiment: Confocal immunofluorescence of 5′FAM-tagged peptides: cell entry and co-localization with AGO2; type: cell-based; settings: 10 µM 5′FAM-tagged peptide
T1 construct: endogenous in cells
T1 sequence (Q9UKV8 whole entry): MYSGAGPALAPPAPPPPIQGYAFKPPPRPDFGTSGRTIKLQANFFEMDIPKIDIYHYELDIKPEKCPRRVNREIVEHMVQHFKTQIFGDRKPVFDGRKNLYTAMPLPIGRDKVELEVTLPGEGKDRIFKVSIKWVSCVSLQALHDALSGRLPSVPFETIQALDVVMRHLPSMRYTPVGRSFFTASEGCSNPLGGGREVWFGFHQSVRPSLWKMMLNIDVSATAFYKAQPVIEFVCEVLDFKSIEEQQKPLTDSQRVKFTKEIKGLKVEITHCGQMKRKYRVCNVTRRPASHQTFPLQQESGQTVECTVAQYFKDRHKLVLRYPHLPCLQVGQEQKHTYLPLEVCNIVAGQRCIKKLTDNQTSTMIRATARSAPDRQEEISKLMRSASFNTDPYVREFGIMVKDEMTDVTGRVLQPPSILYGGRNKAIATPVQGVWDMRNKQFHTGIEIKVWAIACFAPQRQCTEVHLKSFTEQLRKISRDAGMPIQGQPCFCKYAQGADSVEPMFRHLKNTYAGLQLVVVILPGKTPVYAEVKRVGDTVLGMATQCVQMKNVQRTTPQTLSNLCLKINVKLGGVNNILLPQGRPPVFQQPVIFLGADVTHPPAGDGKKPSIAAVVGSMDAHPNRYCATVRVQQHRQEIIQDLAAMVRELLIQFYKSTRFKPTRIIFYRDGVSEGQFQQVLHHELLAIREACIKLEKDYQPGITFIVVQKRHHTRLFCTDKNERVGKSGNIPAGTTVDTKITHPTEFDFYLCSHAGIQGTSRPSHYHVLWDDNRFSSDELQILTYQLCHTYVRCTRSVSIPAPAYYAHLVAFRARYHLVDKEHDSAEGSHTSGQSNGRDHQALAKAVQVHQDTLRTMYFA
Description: (§1) Other general procedures not detailed above including plasmid constructions, transfection, co-immunoprecipitation, RNA extraction, quantitative real-time PCR (qRT-PCR), gene expression analysis, Western blotting, immunofluorescence (IF) staining, and immunohistochemistry staining (IHC) were described previously.

DBTRG-05MG cells [1] = experiment: Time-lapse cellular uptake of 5′FAM-labeled peptides; type: in vitro ADME, human; settings: 5′FAM-labeled peptide, time-lapse confocal and fluorescence by ELISA reader, n = 3 per time point
[2] = target: T2, MSI1/AGO2 interaction (M-NGluc / A-CGluc) (Homo sapiens, UniProt Q9UKV8); experiment: Split Gaussia luciferase reconstitution assay of MSI1/AGO2 interaction; type: cell-based; settings: IVIS; for reconstituted luciferase luminescence versus non-treated or CP-treated cells: tat-conjugated peptides, cisplatin-induced stress (30 µM)
T2 construct: expressed in transfected cells; pcDNA 3.1 and pCMV backbones
T2 sequence (Q9UKV8 whole entry): as above
Description: We applied a gaussia luciferase (Gluc) system to detect protein–protein interaction between MSI1 and AOG2. We split gaussia luciferase into two fragments: the 106 a.a. N-terminus (NGluc) and the 79 a.a. C-terminus (CGluc). After polymerase chain reaction (PCR) amplification, the NGluc and CGluc were subjected to construct fusion protein with MSI1 and AGO2, respectively, in the pcDNA 3.1 and pCMV backbone. Each fusion protein contains a flexible linker (GGGGS) 2 between the protein and polypeptides of split luciferase. We stably transfected both fusion protein expression plasmids in DBTRG-05MG GBM cell line and generated a stable cell line with Hygromycin B (Sigma Aldrich Co., St. Louis, MI, USA) and G418 sulfate (Merck Co., […], Germany). We established a normalizing standard by transducing multiple reporter genes into the generated stable cell line for stably expressing green fluorescent protein (GFP), firefly luciferase (FLuc), and herpes simplex virus type I thymidine kinase (HSV1-tk) using lentivirus as previously described. For in vitro MSI1/AGO2 interaction study in cells, cell lysates were prepared with mild reporter lysis buffer (Promega Co., Madison, WI, USA) with a frozen–thaw cycle. The supernatant was then collected after centrifugation and dispensed in a 96-well black flat bottom plate. Coelenterazine (Nanolight Technologies, Ltd., Pinetop, AZ, USA), the substrate of GLuc, was firstly dissolved in methanol and diluted in reporter assay buffer (15 mM potassium phosphate, 25 mM glycylglycine, 15 mM MgSO4, 4 mM EDTA). D-luciferin sodium salt (Promega Co., Madison, WI, USA) was dissolved in sterilized water and diluted in reporter assay buffer supplemented with 2mM ATP. The bioluminescent signals were acquired by Wallac 1420 Victor2 Microplate Reader (Perkin Elmer, Waltham, MA, USA) equipped with auto-dispenser to avoid rapid decay of Gluc.

[3] = system: CCND1, CDK4, HELLS, NF2, TP53, p21 mRNA; experiment: qRT-PCR of downstream mRNA targets of the MSI1-AGO2 complex under hypoxia; type: cell-based, human; settings: peptide transfection in DBTRG-05MG cells, hypoxia versus normoxia
Description: In vitro binding assay was carried out with N-terminal biotinylated synthetic peptides (Table S3) based on our peptide array screening. The synthesized peptides (Thermo Fisher Scientific Inc., Waltham, MA, USA) were dissolved in 10% DMSO by 1 mg/mL and subjected to incubation with an equal amount of AGO2 recombinant protein (2 μg each) in T20 blocking solution (Thermo Fisher Scientific Inc., Waltham, MA, USA). After 16 h incubation, the peptides were pulled down with immobilized streptavidin (Pierce 21115, Thermo Fisher Scientific Inc., Waltham, MA, USA). The precipitated peptide/protein complex was subjected to immunoblotting with 6×His primary antibody (GeneTex Inc., Hsinchu, Taiwan) hybridization and detection. Peptide transfection was carried out with Proteojuice (Millipore 71281, Merck Co., Darmstadt, Germany) following the manufacturer’s instruction. For the in vivo compatible cell-penetrating peptide (CPP)-modified peptides, we tested two different CPPs at the C-terminal ends, including TAT (48–60) from HIV [55, 56, 57].
as §1

[4] = target: T3, His-tagged recombinant AGO2 (Homo sapiens, UniProt Q9UKV8); experiment: Surface plasmon resonance (Biacore T200) binding of peptides to AGO2; settings: for kon: read-out: ka (association rate constant); for koff: read-out: kd (dissociation rate constant)
T3 sequence (Q9UKV8 whole entry): as above
Description: Surface Plasmon Resonance (SPR) was utilized using Biacore T200 (GE Healthcare) to study binding affinities between decoy peptides Pep#11 and Pep#26 peptides with recombinant His-tagged AGO2 protein. The recombinant His-AGO2 and MSI1 peptides were diluted in HBS-P buffer (10 mM HEPES, 150 mM NaCl and 0.005% T20, pH 7.4). To evaluate the binding affinity, recombinant His-AGO2 was immobilized on a CM5 sensor chip (GE Healthcare, BR100012) via amine coupling (~7000 RU) for 3600 s at a rate of 5 µL/mins, and flow rate for binding analysis was run at 30 µL/mins. After injection of each peptide, the surface was regenerated with an injection of 10 mM NaOH. All sensorgrams were double referenced by subtracting the surface effect from the control flow […] and the buffer effect form the blank buffer. The kinetic values ka, kd, and KD were obtained using Biacore T200 Evaluation Software (GE healthcare) assuming the Langmuir 1:1 binding model.

MSI1/AGO2 interaction = target: T4, MSI1/AGO2 interaction (Homo sapiens, UniProt Q9UKV8); experiment: Co-immunoprecipitation competition of MSI1/AGO2 complex in cells; type: cell-based; settings: cells treated with 10 µM peptide, hypoxic condition
T4 construct: endogenous in cells
T4 sequence (Q9UKV8 whole entry): as above
Description: as §1

DBTRG-05MG cells [5] = experiment: Degradation of 5′FAM-labeled peptides in cells; type: in vitro ADME, human; settings: 5′FAM-labeled peptide, cells followed up to 6 h, fluorescence by ELISA reader, three independent experiments
DBTRG-05MG cell line = experiment: Concentration-dependent cellular uptake (half-uptake concentration EC50); type: in vitro ADME, human; settings: Figure 6A,B legend, fluorescein labeled peptides, ELISA reader
[6] = target: T3, His-tagged recombinant AGO2; experiment: PepSpot peptide tiling array incubated with His-tagged AGO2; type: binding; settings: 15-mer peptides on nitrocellulose, 2 μg His-AGO2 overnight, HRP anti-6×His
Description: To rapidly screen the putative binding hotspots along the C-terminus of MSI1, we mimicked the epitope screening method by dotting the synthetic short peptides on nitrocellulose membrane and incubated with purified AGO2 protein [49]. The C-terminus of MSI1 (200–362) was divided into 27 individual synthetic peptides with N-terminal amine attached on the nitrocellulose. Each peptide is 15 amino acids in length and has eight amino acids overlapping with the previous neighboring peptide (Table S1). The purchased PepSpot membrane (JPT peptide technologies, Berlin, Germany) was firstly rinsed in methanol for 5 min, followed by Tris buffer saline supplemented with 0.1% Tween-20 (TBS-T) washing thrice. The membrane was then blocked by Superblock T20 blocking buffer (Thermo Fisher Scientific Inc., Waltham, MA, USA) for 2 h and 2 μg His-tagged AGO2 recombinant protein was added for an overnight incubation. The membrane was washed thrice with TBS-T and incubated with horseradish peroxidase (HRP)-conjugated 6×His tag primary antibody (Genetex Inc., Hsinchu, Taiwan) for 4 h under 4 °C. Enhanced chemiluminescent reagent was used for further blotting.

| Molecule | entry into cells (confocal microscopy) (endogenous AGO2) | reconstituted luciferase luminescence versus non-treated or CP-treated cells [2] | effect of hypoxia-induced MSI1/AGO2 complex on downstream mRNAs (CCND1, CDK4, HELLS, NF2, TP53, p21) [3] | kon [4] [M⁻¹ s⁻¹] | koff [4] [s⁻¹] | interference with MSI1/AGO2 binding complex formation (Co-IP immunoblot) (MSI1/AGO2 interaction) | time of significant degradation in the cells (change in 5′FAM fluorescence) (DBTRG-05MG cells [5]) | EC50 (DBTRG-05MG cell line) [µM] | binding to AGO2 on the peptide array (immunoblot) [6] | further results |
| --- | --- | --- | --- | --- | --- | --- | --- | --- | --- | --- |
| CC(C)C[C@H](NC(=O)[C@@H]1CCCN1C(=O)[C@@H](NC(=O)[C@H](CCCNC(=N)N)NC(=O)[C@H](CCC(=O)O)NC(=O)[C@@H](NC(=O)[C@H](CCCNC(=N)N)NC(=O)[C@H](Cc1ccccc1)NC(=O)[C@H](CCC(=O)O)NC(=O)[C@@H]1CCCN1C(=O)[C@H](Cc1ccccc1)NC(=O)[C@H](CCC(N)=O)NC(=O)[C@H](Cc1ccc(O)cc1)NC(=O)c1ccc2c(c1)C(=O)OC21c2ccc(O)cc2Oc2cc(O)ccc21)C(C)C)[C@@H](C)O)C(=O)N1CCC[C@H]1C(=O)N[C@@H](CO)C(=O)NCC(=O)N[C@@H](CCCNC(=N)N)C(=O)N[C@@H](CCCCN)C(=O)N[C@@H](CCCCN)C(=O)N[C@@H](CCCNC(=N)N)C(=O)N[C@@H](CCCNC(=N)N)C(=O)N[C@@H](CCC(N)=O)C(=O)N[C@@H](CCCNC(=N)N)C(=O)N[C@@H](CCCNC(=N)N)C(=O)N[C@@H](CCCNC(=N)N)C(=O)N1CCC[C@H]1C(=O)N1CCC[C@H]1C(=O)N[C@@H](CCC(N)=O)C(=O)O [5′FAM-Pep#11] (5FAM-YQFPEFRVERTPLPSGRKKRRQRRRPPQ-OH) | capable of entering the cells |  |  |  |  |  |  |  |  | subcellular co-localization with AGO2 (endogenous AGO2; confocal microscopy): co-localized with endogenous AGO2 in the cytosol |
| CC[C@H](C)[C@H](NC(=O)[C@H](CC(C)C)NC(=O)[C@@H]1CCCN1C(=O)CNC(=O)CNC(=O)[C@H](CC(C)C)NC(=O)[C@H](CO)NC(=O)[C@H](Cc1c[nH]cn1)NC(=O)c1ccc2c(c1)C(=O)OC21c2ccc(O)cc2Oc2cc(O)ccc21)C(=O)N[C@@H](C)C(=O)N[C@H](C(=O)N[C@@H](C)C(=O)N[C@@H](Cc1ccccc1)C(=O)N[C@H](C(=O)N[C@@H](CC(N)=O)C(=O)NCC(=O)NCC(=O)N[C@@H](CCCNC(=N)N)C(=O)N[C@@H](CCCCN)C(=O)N[C@@H](CCCCN)C(=O)N[C@@H](CCCNC(=N)N)C(=O)N[C@@H](CCCNC(=N)N)C(=O)N[C@@H](CCC(N)=O)C(=O)N[C@@H](CCCNC(=N)N)C(=O)N[C@@H](CCCNC(=N)N)C(=O)N[C@@H](CCCNC(=N)N)C(=O)N1CCC[C@H]1C(=O)N1CCC[C@H]1C(=O)N[C@@H](CCC(N)=O)C(=O)O)[C@@H](C)O)[C@@H](C)O [5′FAM-Pep#26] (5FAM-HSLGGPLIATAFTNGGRKKRRQRRRPPQ-OH) | capable of entering the cells |  |  |  |  |  |  |  |  |  |
| YQFPEFRVERTPLPSGRKKRRQRRRPPQ [Pep#11] |  | significantly lower | reversed | 32600 | 0.0168 | completely abolished | within the first half an hour | 9.1 | strongest binding peptides | time of significant increases in cellular uptake (DBTRG-05MG cells [1]): within the first hour |
| GSHPWTMAPPPGSTPGRKKRRQRRRPPQ [CP, reference compound] |  |  |  | 42500 | 4.53 |  |  |  |  |  |
| HSLGGPLIATAFTNGGRKKRRQRRRPPQ [Pep#26] |  | significantly lower | reversed | 3160 | 0.00213 | completely abolished | within the first half an hour | 9 | strongest binding peptides |  |
| N.N.[Cl][Pt][Cl] [cisplatin, reference compound] |  |  |  |  |  |  |  |  |  | luciferase luminescence versus PBS-treated group ([2]; cells overexpressing M-NGluc and A-CGluc, 30 µM cisplatin): significantly greater luminescence |
